The values that follow come from US6759430B2, “Piperidine and pyrrolidine derivatives comprising a nitric oxide donor for treating stress” (OxoN Medica Inc., priority 1998, dated 2004).

The nature of experiment [1]: in vivo induction of tolerance, subcutaneous dosing. Further details: species or system rat. As to conditions: subcutaneously 30 mg/kg t.i.d for three consecutive days.
In experiment [2] the test system is rat aortic rings (RARs). The experiment can be described thus: in vitro induction of tolerance in rat aortic rings. Type of experiment: cell-based. As to conditions: for tolerance induction in vitro: RARs pre-exposed to 0.44 mM of the drug for 1 hr; for vaso-relaxant effect on rings before and after exposure to GTN: rings exposed to 0.44 mM GTN for 1 hr, FIGS. 4 and 5; for vaso-relaxant potency, control versus NO-TEMPO-pre-treated RARs: rings exposed to 0.44 mM NO-TEMPO, FIGS. 7 and 8. The protocol: (§1) Materials: Male Sprague-Dawley rats (250-300 g) were purchased from the Animal Care Facility of the Hebrew University and used in the rat aortic rings (RARs) relaxation studies in vitro and the blood pressure monitoring and cGMP studies in vivo.
In vitro induction of GTN tolerance: Aortic rings were treated as for the control studies except that rings were exposed to 0.44 mM GTN for 1 hr. At the end of the tolerance induction period, rings were washed every 15 min for the following hour. Attempted induction of tolerance to NO-TEMPO was performed under the same conditions as for GTN with rings exposed to 0.44 mM solution of NO-TEMPO. CCRC were constructed for NO-TEMPO and GTN. […] This conclusion is further supported by separately evaluating the vaso-relaxant effect of each drug on control and NO-TEMPO-pre-treated RARs.

Experiment [3] in a line: in vivo blood pressure (mean arterial pressure) monitoring in anesthetized rats. On the set-up: species or system rat. As for the experimental part:
as §1
In the in vivo experiment, rats were anesthetized with an intraperitoneal injection of a combination of ketamine and xylazine (50 and 10 mg per kg, respectively). A catheter was placed in the right external jugular vein and introduced to the level of right atrium. A second arterial catheter was placed in the left carotid artery and introduced to the level of the ascending aorta. The tip of arterial catheter was connected to a pressure transducer which is connected to another electrical transducer connected to a computerized Experimetria system. Blood-pressure (mean arterial pressure=MAP) was recorded before (basal) and after drug administration. NO-TEMPO was injected through the venous catheter and induced a significant drop in MAP which lasts for 5 to 10 minutes. Values for basal MAP were 130±15 before and 60±10 mm Hg following a 1 mg injection of NO-TEMPO.

The nature of experiment [4]: superoxide scavenging activity in vitro (photometric microassay, xanthine oxidase/hypoxanthine, ferricytochrome c reduction). In kind it is biochemical. The conditions noted are these: inhibition of ferricytochrome c reduction; 0.003-3 mM tested; n=5. The protocol:
Assessment of superoxide scavenging activity in vitro
The superoxide scavenging activity of TEMPO-4-mononitrate (0.003-3 mM) and reference compound superoxide dismutase (SOD, 200 U/ml), were determined using a photometric microassay in vitro (Laight et al., Environ. J. Toxicol. Pharmracol., 3, 65-68, 1997) developed from the assay of McCord & Fridovich (J. Biol. Chem., 244, 6059-55, 1969). The assay mixture consisted of (final concentration): 50 μl ferricytochrome c (100 μM); 10 μl xanthine oxidase (20 mU/ml); 20 μl hypoxanthine (100 μM); and 20 μl sample dissolved in isotonic phosphate (10 mM)-buffered saline (PBS, pH 7.4) to make a total volume of 100 μl in a 96-well plate. The reaction was conducted at room temperature and initiated by the addition of hypoxanthine. The increase in optical density (OD) at […] was measured over a 3 min period of 30 s intervals and initial reaction rates determined at least in triplicate.
There was a linear relationship between the initial reaction rate and the concentration of xanthine oxidase (5-20 mU/ml) (r=0.9982, P<0.002, n=4). […] Xanthine oxidase at 20 mU/rml, which provided an initial reaction rate of 28.3±1.7 mOD/min (n=4), was adopted for subsequent inhibition studies (see McCord & Fridovich, 1969). The initial reaction rate was depressed by SOD (200 U/ml) by 95.3±1.1% (n=4, P<0.01) and by TEMPO-4-mononitrate (see FIG. 1).

Experiment [5] concerns cGMP content in aortic tissue. In words: vascular cGMP content after in vivo administration (RIA). The conditions noted are these: for effect on vascular cGMP compared to GTN: intravenously in equimolar doses. Further details: species or system rat. The protocol:
as §1
Experiments were performed in anaesthetized rats as above. Following i.v. administration of NO-TEMPO (0.1, 0.2, 0.5 mg etc.,) the thorax was opened and the aorta removed immediately (within thirty seconds from the administration). After standard processing procedures, cGMP content in the vascular tissue was measured by Radioimmunoassay (RIA) using commercially available kits (i.e., Kit 500 TRK from Amersham).

The test system of experiment [6] is rat aortic rings (RARs). The experiment can be described thus: in vitro vasorelaxation of epinephrine-contracted rat aortic rings. Type of experiment: cell-based. The conditions noted are these: control RARs contracted with epinephrine 1 μM; FIGS. 2 and 3. The protocol:
as §1
In vitro vasorelaxation: Thoracic aortae were removed following anesthesia with intraperitoneal injection of ketamine and xylazine (50 and 10 mg/kg, respectively). The paraadventetial tissue surrounding the vessel was carefully removed. Aortae were cut into rings of 4-5 mm and mounted onto the tissue path. The path buffer (Krebs-bicarbonate) was constantly gassed with carbogen and maintained at 37° C. The rings were preloaded under 2 g tension and equilibrated for 90 min with buffer changed every 15 min. After stabilization, the rings were contracted with epinephrine (1 μM). Commulative Concentration-Response Curves (CCRC) were constructed for NO-TEMPO, glyceryl trinitrate (GTN) and S-nitroso-N-acetylpenicillamine (SNAP). FIGS. 2 and 3 represent the vaso-relaxant effect of NO-TEMPO as compared to the conventional NO-donors GTN and SNAP.

Molecules are shown by their SMILES.

Regarding `O=[N+]([O-])OCC(CO[N+](=O)[O-])O[N+](=O)[O-]` [GTN, glyceryl trinitrate, reference compound], the “tolerance induction in vivo” value in experiment [1] is “does induce tolerance to itself and to NO-TEMPO”. In experiment [2], the “tolerance induction in vitro” value is “induces tolerance both to itself and to NO-TEMPO”; the “vaso-relaxant effect on rings before and after exposure to GTN” value is reported as “development of GTN tolerance”; the “vaso-relaxant potency, control versus NO-TEMPO-pre-treated RARs” value was “no significant difference”. For the same compound, the “tolerance of the hypotensive effect on MAP following successive administration” value (shortened to “tolerance of the hypotensive effect”) in experiment [3] was “attenuation to their effect on MAP develops”.
In experiment [4], `CC1(C)CC(O[N+](=O)[O-])CC(C)(C)N1[O]` [TEMPO-4-mononitrate, 4-Nitrato-2,2,6,6-tetramethylpiperidinyloxy, free radical] had a pIC50 value of 2.89±0.03. Also, the “increase in vascular cGMP” value in experiment [5] (1 mg i.v. versus basal) was 4-5 fold. Besides, the “cGMP content in aortic tissue” value in experiment [5] (1 mg i.v., aorta removed within thirty seconds, basal 46±10) turned out to be 197±18 pmole/g tissue. Further, the “tolerance of the vascular cGMP effect” value in experiment [5] (NO-TEMPO pre-treated rats) is “lack of tolerance induction”. In experiment [5] (control rats), the “effect on cGMP content of vascular tissue” value was “significant increase” and the “effect on vascular cGMP compared to GTN” value is “compared well with that of GTN”. For the same compound, the “effect on vascular cGMP compared to GTN” value in experiment [5] (control rats, listed as NO-TEMPO) is recorded as “superior activity as compared to GTN”. Besides, the “tolerance induction in vivo” value in experiment [1] is on record as “does not induce tolerance either to itself or to GTN”. Further, in experiment [2], the “tolerance induction in vitro” value is on record as “does not induce tolerance neither to itself nor to GTN”; the “vaso-relaxant effect on rings before and after exposure to GTN” value is “significant difference”; the “vaso-relaxant potency, control versus NO-TEMPO-pre-treated RARs” value is on record as “no significant difference”. In addition, the “vaso-relaxant effect compared to conventional NO-donors GTN and SNAP” value in experiment [6] is given as “superiority of NO-TEMPO to both of these NO-donors”. Moreover, the “mean arterial pressure (MAP) following injection” value in experiment [3] (1 mg injection through venous catheter, basal MAP 130±15) turned out to be 60±10 mm Hg. Moreover, in experiment [3] (rat, in vivo), the “hypotensive effects in vivo compared to GTN and SNAP” value is “superiority of this drug to both GTN and SNAP”. In addition, the “tolerance of the hypotensive effect” value in experiment [3] is “lack of tolerance development”.
Take `CC(=O)N[C@H](C(=O)O)C(C)(C)SN=O` (racemic) [SNAP, S-nitroso-N-acetylpenicillamine, reference compound]: the “tolerance of the hypotensive effect” value in experiment [3] is on record as “attenuation to their effect on MAP develops”.
